Earlier results on one compound are cited in patent US5399360A, “Pharmaceutical compositions” (Sandoz Pharmaceuticals Corp., priority 1986, dated 1995).

For this data set the following is noted: described in German Patent 2,111,071.

As for `CN1CCC(=C2c3ccccc3CC(=O)c3sccc32)CC1` [Ketotifen, 4-(1-methyl-4-piperidylidene)-4H-benzo[4,5]cyclohepta[1,2-b]thiophen-10(9H)-one], the pharmacological properties entry was “anti-anaphylacticand anti-histamine properties”.
